Key:
[1] = system: tripeptidyl peptidase 2 (TPP2); experiment: Ala-Ala-Phe-AMC cleavage (TPP2 substrate) in HEK293T cell extracts; format: biochemical, human; settings: HEK293T cell extract, up to 5 µM
Description: (§1) All enzyme assays described below were performed in the linear range of the assay, as determined from time-course studies. HEK293T cells were lysed by sonication in 50 mM TrisHCl buffer, pH 7.5, containing 40 mM KCl, 5 mM MgCl2, 0.5 mM ATP, and 1 mM DTT (Buffer 1).
(§2) To measure TPP2, the fluorescent substrate was Ala-Ala-Phe-AMC. Aminopeptidase (AP) assays were performed with Leu-AMC and Ala-AMC, which detect leucine aminopeptidase (LAP), puromycin-sensitive aminopeptidase (PSAP), and other enzymes. To measure the effect of aminopeptidase/proteasome inhibitors on cleavage of Ala-Ala-Phe-AMC and Leu-AMC, 1∶50 dilution of the cell extract was pre-incubated with the inhibitor and Buffer 1 for 30 min, followed by addition of 100 µM final concentration of the respective substrate. For Ala-AMC, the same dilution of the cell extract was pre-incubated with the inhibitor and 50 mM MOPS buffer, pH 7.5, containing 40 mM KCl, 5 mM MgCl2, 0.5 mM ATP, and 1 mM DTT (Buffer 2), followed by addition of 100 µM final concentration of the substrate. After incubation at 37°C for 1 hour, enzyme activity was quantified by fluorescence measurement of the substrate (380 nm excitation, 460 nm emission).
Enzyme activity was determined by fluorescence measurement of AMC and expressed as percentage enzyme activity relative to the control lacking inhibitor. […]

[2] = system: HEK293T cell aminopeptidase activity (Leu-AMC cleavage); experiment: Aminopeptidase assay with Leu-AMC in HEK293T cell extracts; format: biochemical, human; settings: HEK293T cell extract, 10 µM inhibitor
Description: as §1, §2
(§3) Figure 7 Effect of aminopeptidase inhibitors on Ala-AMC and Leu-AMC cleavage. HEK 293T cell extract (panels A–D) or recombinant PSAP (panels E–F) were treated with increasing concentrations of bestatin or puromycin for 30 minutes followed by the addition of substrate and incubation for 1 hour. Enzyme activity was determined by fluorescence measurement of AMC and expressed as percentage enzyme activity relative to the control without inhibitor. (A) Bestatin inhibition of HEK293T cell extract assayed with Ala-AMC. (B) Bestatin inhibition of HEK293T cell extract assayed with Leu-AMC. (C) Puromycin inhibition of HEK293T cell extract assayed with Ala-AMC. (D) Puromycin inhibition of HEK293T cell extract assayed with Leu-AMC. (E) Puromycin inhibition of purified PSAP assayed with Ala-AMC. (F) Puromycin inhibition of purified PSAP assayed with Leu-AMC. Error bars show standard error of mean (n = 4), points without error bars had error ranges smaller than the symbol size. Statistical analysis was performed using Student’s t-test: *, p≤0.05; **, p≤0.01; ***, p≤0.001; ns, no significant difference (p>0.05) versus the control.
(§4) Figure 8 Effect of proteasome inhibitors on Ala-AMC and Leu-AMC cleavage. HEK 293T cell extract or recombinant PSAP was treated with 10 µM of each of the proteasome inhibitors for 1 hour in addition to a 30 min pre-incubation without the substrate. Enzyme activity was determined by fluorescence measurement of AMC and expressed as percentage enzyme activity relative to the control without inhibitor. Panels A and B represent the effect of proteasome inhibitors on cleavage of Ala-AMC and Leu-AMC respectively, in HEK293T cell extract. […] Error bars show standard error of mean (n = 4). Statistical analysis was performed using Student’s t-test: *, p≤0.05; **, p≤0.01; ***, p≤0.001; ns, no significant difference (p>0.05) versus the control.

26S proteasome = 26S proteasome (Saccharomyces cerevisiae, UniProt P23724+P30656); experiment: Chymotryptic-like activity of purified yeast 26S proteasome (Suc-Leu-Leu-Val-Tyr-AMC); format: biochemical; settings: in the presence of ATP
Description: (§5) Proteasome activity was quantified by measuring the kinetics of fluorescence release (380 nm excitation, 460 nm emission). Fluorescence was measured at an interval of 30 seconds for 30 minutes with 5 seconds of mixing prior to each cycle. Proteasomes were purified as described previously, [35].
(§6) After incubation for 15 minutes, enzyme activity was measured by monitoring the fluorescence kinetics for the next 30 minutes. […] Enzyme activity is expressed as percent control without inhibitor. Error bars show standard error of the mean; error bars smaller than symbol size are not visible.

[3] = target: T1, recombinant human puromycin-sensitive aminopeptidase (PSAP, rhNPEPPS) (Homo sapiens, UniProt P55786); experiment: Cleavage of Leu-AMC and Ala-AMC by purified recombinant PSAP; format: biochemical; settings: 10 µM inhibitor, Ala-AMC
T1 construct: purchased R&D Systems
T1 sequence (P55786 whole entry): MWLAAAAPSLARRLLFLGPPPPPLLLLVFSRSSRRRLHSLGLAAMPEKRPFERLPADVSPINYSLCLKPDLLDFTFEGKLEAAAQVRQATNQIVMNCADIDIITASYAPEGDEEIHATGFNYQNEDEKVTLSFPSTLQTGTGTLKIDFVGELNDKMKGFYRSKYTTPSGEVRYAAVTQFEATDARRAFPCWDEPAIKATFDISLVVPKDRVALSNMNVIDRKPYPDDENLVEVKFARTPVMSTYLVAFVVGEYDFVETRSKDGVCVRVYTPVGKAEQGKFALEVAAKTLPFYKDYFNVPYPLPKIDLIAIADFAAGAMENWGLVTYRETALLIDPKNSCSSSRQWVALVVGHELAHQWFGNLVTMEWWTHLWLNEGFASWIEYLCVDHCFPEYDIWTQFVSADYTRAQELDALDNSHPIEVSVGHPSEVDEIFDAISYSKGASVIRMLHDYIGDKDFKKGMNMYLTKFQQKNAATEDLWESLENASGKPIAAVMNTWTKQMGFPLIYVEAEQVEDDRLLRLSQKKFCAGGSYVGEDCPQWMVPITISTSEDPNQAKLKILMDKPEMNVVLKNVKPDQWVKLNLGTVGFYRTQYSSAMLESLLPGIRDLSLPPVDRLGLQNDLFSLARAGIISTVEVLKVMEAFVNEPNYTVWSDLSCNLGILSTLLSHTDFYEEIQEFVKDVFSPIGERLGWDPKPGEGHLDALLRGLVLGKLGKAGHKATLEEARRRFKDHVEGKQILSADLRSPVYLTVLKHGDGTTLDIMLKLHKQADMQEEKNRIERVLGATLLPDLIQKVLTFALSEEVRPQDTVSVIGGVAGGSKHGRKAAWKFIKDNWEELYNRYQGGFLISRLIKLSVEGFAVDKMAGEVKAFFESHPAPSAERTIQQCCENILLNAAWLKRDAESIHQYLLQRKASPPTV
Description: To measure the effect of inhibitors on cleavage of Leu-AMC and Ala-AMC by purified PSAP, recombinant human PSAP (rhNPEPPS, R&D Systems) was diluted 1∶2000 in Buffer 2 containing 0.1 mg/ml BSA. The enzyme was pre-incubated with the inhibitor and Buffers 1 or 2, followed by addition of 100 µM final concentration of Leu-AMC (to the mix containing Buffer 1) and Ala-AMC (to the mix containing Buffer 2). After incubation at 37°C for 1 hour, PSAP activity was quantified by fluorescence measurement of the substrate (380 nm excitation, 460 nm emission).
as §3, §4

HEK293T cells = settings: HEK293T cells; cited from earlier work
[4] = target: T2, 20S proteasome core particle (Saccharomyces cerevisiae, UniProt P23724+P30656); experiment: Chymotryptic-like activity of purified yeast 20S core particle (Suc-Leu-Leu-Val-Tyr-AMC); format: biochemical
T2 construct: various proteasome forms purified from yeast; made in house; host or cells: yeast
Description: as §5, §6

[5] = target: T3, Blm10-activated 20S core particle (Saccharomyces cerevisiae, UniProt P23724+P30656); experiment: Chymotryptic-like activity of purified yeast Blm10-20S (Suc-Leu-Leu-Val-Tyr-AMC); format: biochemical; settings: in the absence of ATP
T3 construct: various proteasome forms purified from yeast; made in house; host or cells: yeast
Description: as §5, §6

SH-SY5Y cells = settings: cited from earlier work
[6] = system: open gate mutant of the 20S core particle; experiment: Chymotryptic-like activity of open gate mutant of yeast 20S (Suc-Leu-Leu-Val-Tyr-AMC); format: biochemical; settings: in the absence of ATP
Description: as §5, §6

[7] = system: HEK293T cell aminopeptidase activity (Ala-AMC cleavage); experiment: Aminopeptidase assay with Ala-AMC in HEK293T cell extracts; format: biochemical, human; settings: HEK293T cell extract; for Enzyme activity (% control with no inhibitor): Ala-AMC
Description: as §1, §2, §3, §4

SMILES: CC(C)C[C@H](NC(=O)[C@H](Cc1ccccc1)NC(=O)c1cnccn1)B(O)O [bortezomib]
- inhibition of Ala-Ala-Phe-AMC cleavage [1]: did not show significant inhibition
- effect on cleavage of Leu-AMC [2]: partially inhibited
- inhibition of chymotryptic-like activity, 26S compared with 20S (26S proteasome): comparable inhibition
- effect on cleavage of Ala-AMC by purified PSAP [3]: no significant effect
- change in levels of intracellular peptides (peptidome) (HEK293T cells): increase in the levels of most intracellular peptides
- inhibition of chymotryptic-like activity, compared among 20S forms ([4]; in the absence of ATP): comparable potency
- inhibition of chymotryptic-like activity, 20S compared with 26S ([4]; in the presence of ATP): comparable inhibition
- inhibition of chymotryptic-like activity, compared among 20S forms [5]: comparable potency
- change in levels of intracellular peptides (peptidome) (SH-SY5Y cells): increase in the levels of most intracellular peptides
- inhibition of chymotryptic-like activity, compared among 20S forms [6]: comparable potency
- effect on cleavage of Ala-AMC ([7]; 10 µM inhibitor): partially inhibited
- Enzyme activity (% control with no inhibitor) ([7]; bestatin 50 µM together with bortezomib 10 µM): 14.8±0.6 % control with no inhibitor
- Enzyme activity (% control with no inhibitor) ([7]; bestatin 50 µM together with bortezomib 50 µM): 14.8±0.8 % control with no inhibitor

Source: paper PMC4117522, “Proteasome Inhibitors Alter Levels of Intracellular Peptides in HEK293T and SH-SY5Y Cells” (PLoS ONE, 2014)
